Measured values from PMC7581365, “Structural features and development of an assay platform of the parasite target deoxyhypusine synthase of Brugia malayi and Leishmania major” (PLoS Neglected Tropical Diseases, 2020).

T1: Deoxyhypusine synthase (BmDHS) (Brugia malayi, UniProt A0A0J9XTC4)
T1 construct: gene bma-dhps-1; full-length, recombinant BmDHS (residues 1–366)
T1 sequence (A0A0J9XTC4 1-366): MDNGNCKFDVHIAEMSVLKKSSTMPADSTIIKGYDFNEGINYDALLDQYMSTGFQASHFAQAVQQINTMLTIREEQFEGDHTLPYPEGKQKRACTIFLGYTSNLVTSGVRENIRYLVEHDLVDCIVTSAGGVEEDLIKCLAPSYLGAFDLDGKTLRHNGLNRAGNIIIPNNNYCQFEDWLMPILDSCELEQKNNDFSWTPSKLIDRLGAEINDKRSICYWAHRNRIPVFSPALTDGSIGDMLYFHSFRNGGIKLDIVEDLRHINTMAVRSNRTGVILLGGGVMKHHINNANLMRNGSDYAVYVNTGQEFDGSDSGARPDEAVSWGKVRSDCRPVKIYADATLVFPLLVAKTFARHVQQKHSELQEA

B1: Brugia malayi deoxyhypusine synthase (BmDHS), full-length recombinant protein (enzyme)
chain: SMDNGNCKFDVHIAEMSVLKKSSTMPADSTIIKGYDFNEGINYDALLDQYMSTGFQASHFAQAVQQINTMLTIREEQFEGDHTLPYPEGKQKRACTIFLGYTSNLVTSGVRENIRYLVEHDLVDCIVTSAGGVEEDLIKCLAPSYLGAFDLDGKTLRHNGLNRAGNIIIPNNNYCQFEDWLMPILDSCELEQKNNDFSWTPSKLIDRLGAEINDKRSICYWAHRNRIPVFSPALTDGSIGDMLYFHSFRNGGIKLDIVEDLRHINTMAVRSNRTGVILLGGGVMKHHINNANLMRNGSDYAVYVNTGQEFDGSDSGARPDEAVSWGKVRSDCRPVKIYADATLVFPLLVAKTFARHVQQKHSELQEA
notes: additional N-terminal serine residue introduced by the cloning strategy and left over after TEV cleavage of the poly-His tag; Deoxyhypusine synthase of Brugia malayi, encoded by bma-DHPS-1, full-length enzyme, residues 1-366; Expressed from pNIC28-Bsa4; Molecular weight by LC-MS 41,083.5 Da; also called B. malayi (Bm)DHS; filarial worm DHS; source: E. coli BL21(DE3)-R3-pRARE2, purified (HisTrap …)

Tests used:
[1] = target: T1, Deoxyhypusine synthase (BmDHS); assay: NADH fluorescence assay of DHS partial reaction with purified recombinant enzyme; assay type: biochemical
[2] = target: the molecule itself; assay: SEC; analytical gel filtration, Superdex 200 Increase 10/300, 900 ug purified BmDHS; 20 mM HEPES pH 7.5, 300 mM NaCl, 5% glycerol, 0.5 mM TCEP; calibrated with protein standards (Kav against log mass)

Molecule | IC50 [1] [µM] | stoichiometry N [2]
N=C(N)NCCCCCCCN [GC7] | 0.028 | –
B1 | – | 4
